Key:
[1] = test system: thermophilic bacteria; experiment: pH drop (acid formation) of thermophilic bacteria culture: liquid nutrient medium inoculated with crude juice, 65° C.; assay type: cell-based, thermophilic bacteria from sugar beet crude juice; details: Example 9; for pH / ΔpH/h: 0.2 ml solution each added at pH 6.30, 6.28, 6.26, 6.24
Procedure: A liquid nutrient medium as used in microbiology and including 10 g bactopepton, 5 g meat extract, 5 g yeast extract, 1 g glucose, 1 g K2HPO4, 0.3 g KNO3, 0.1 g MgSO4*7H2O and 0.01 g FeSO4*7H2O per liter distilled water, is sterilized in the usual manner for 20 minutes at 120° C. and inoculated with 20 ml crude juice from large-scale sugar beet extraction in a 500 ml vessel heated at 65° C., with the pH being recorded on a recorder. […]
A liquid nutrient medium as used in Example 1 is inoculated with 40 ml crude juice from a sugar factory per liter, stirred at 65° C. and the pH drop is followed. A solution of 15 mg pure neoabietic acid (99%) per 1.5 ml ethanol is prepared.

[2] = test system: osmotolerant microorganisms; experiment: pH drop of syrup with 60% dry substances during storage at 22° C.; assay type: cell-based; details: 350 ppm
Text: A further pH drop is to be avoided or at least delayed by the addition of an agent. The juice is supplemented with rosin acids at a concentration of 200 ppm in the form of a 20% sodium salt solution.

CC(C)=C1C=C2CCC3C(C)(C(=O)O)CCCC3(C)C2CC1 (stereo not drawn) [neoabietic acid]
concentration at which the pH drop is stopped ([1]; ethanol solution, four additions of 0.2 ml, 40 ml crude juice per liter, 65° C.): 8 mg per liter
pH ([1]; Time 0 h): 6.90
pH ([1]; Time 1 h): 6.90
ΔpH/h ([1]; Time 1 h): 0.00 pH/h
pH ([1]; Time 2 h): 6.89
ΔpH/h ([1]; Time 2 h): 0.01 pH/h
pH ([1]; Time 3 h): 6.87
ΔpH/h ([1]; Time 3 h): 0.02 pH/h
pH ([1]; Time 3.5 h): 6.86
ΔpH/h ([1]; Time 3.5 h): 0.02 pH/h
pH ([1]; Time 4 h): 6.85
ΔpH/h ([1]; Time 4 h): 0.02 pH/h
pH ([1]; Time 4.5 h): 6.82
ΔpH/h ([1]; Time 4.5 h): 0.06 pH/h
pH ([1]; Time 5 h): 6.72
ΔpH/h ([1]; Time 5 h): 0.20 pH/h
pH ([1]; Time 5.5 h): 6.54
ΔpH/h ([1]; Time 5.5 h): 0.36 pH/h
pH ([1]; Time 5.8 h): 6.30
ΔpH/h ([1]; Time 5.8 h): 0.80 pH/h
pH ([1]; Time 6 h): 6.24
ΔpH/h ([1]; Time 6 h): 0.30 pH/h
pH ([1]; Time 6.5 h): 6.24
ΔpH/h ([1]; Time 6.5 h): 0.00 pH/h
pH ([1]; Time 7 h): 6.25
ΔpH/h ([1]; Time 7 h): −0.02 pH/h
pH ([1]; Time 8 h): 6.25
ΔpH/h ([1]; Time 8 h): 0.00 pH/h

C=O [HCHO, formaldehyde]
ph drop ([2]; Observation time 0 days): 0
ph value ([2]; Observation time 0 days): 8.44
ph drop ([2]; Observation time 1 days): 0.39
ph value ([2]; Observation time 1 days): 8.05
ph drop ([2]; Observation time 2 days): 0.48
ph value ([2]; Observation time 2 days): 7.96
ph drop ([2]; Observation time 5 days): 0.67
ph value ([2]; Observation time 5 days): 7.77

From US6770147B2, “METHOD FOR THE PRODUCTION OF SUGAR OR SUGAR-CONTAINING PRODUCTS FROM SUGAR-CONTAINING VEGETABLE RAW MATERIALS, SUGAR AND SUGAR-CONTAINING PRODUCTS MADE BY THE METHOD, AND EXTRACTION SOLUTION FOR USE IN THE METHOD” (Zuckerforschung Tulln Gesellschaft m.b.H., priority 2000, dated 2004)
